According to patent US11820756B2, “Bradykinin B2 receptor antagonists” (Pharvaris Netherlands B.V., priority 2017, dated 2023):

Columns and labels:
[1] = biological target: T1, human bradykinin B2 receptor (hB2R) (Homo sapiens, UniProt P30411); test: cell-based human bradykinin B2 receptor calcium mobilization (hB2R-CaM) assay; conditions: for IC50: HTS041C cells, bradykinin at EC80, calcium mobilization, read-out: IC50-value towards human bradykinin B2 receptor (hB2R)
T1 sequence (P30411 1-391): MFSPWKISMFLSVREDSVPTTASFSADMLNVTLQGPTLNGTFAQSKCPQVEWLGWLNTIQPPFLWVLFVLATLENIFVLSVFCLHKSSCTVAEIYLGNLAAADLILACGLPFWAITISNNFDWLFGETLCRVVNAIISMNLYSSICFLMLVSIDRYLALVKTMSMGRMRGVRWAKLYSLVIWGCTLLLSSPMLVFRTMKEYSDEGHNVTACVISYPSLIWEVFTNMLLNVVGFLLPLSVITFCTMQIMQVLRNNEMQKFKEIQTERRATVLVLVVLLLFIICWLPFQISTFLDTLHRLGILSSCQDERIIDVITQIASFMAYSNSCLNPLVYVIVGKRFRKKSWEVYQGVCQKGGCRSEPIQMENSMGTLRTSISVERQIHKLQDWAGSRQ
Method in brief: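 HTS041C cells stably expressing hB2R were serum-reduced, loaded with Calcium 6 dye and pre-incubated with compound (8-point, n=2, 0.1% DMSO) for 25 min at 37° C. Bradykinin was then added at EC80. IC50 came from a 4-parameter logistic fit of the max-min fluorescence signal (485/525 nm).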

[2] = Caco-2 cell permeability assay (efflux ratio); assay type: in vitro ADME, human; conditions: human, Caco-2, Papp B to A/Papp A to AB, differentiated Caco-2 cell monolayer; read-out: Caco-2 BA/AB (efflux ratio)
Protocol: (§1) The permeability of the test compounds was determined with a Caco-2 cell permeability assay according to Hubatsch I. et al (Nat. Protoc. 2007, 2 (9), 2111-2119).
(§2) The Caco-2 cell line is a continuous cell of heterogeneous human epithelial colorectal adenocarcinoma cells. When cultured as a confluent monolayer on a permeable support such as a cell culture insert filter, the cells differentiate to form a polarized epithelial cell monolayer that provides a physical and biochemical barrier to the passage of ions and small molecules. In form of the confluent monolayer, the Caco-2 cells serve in the pharmaceutical industry as a well established in vitro model of the human small intestinal mucosa to predict the absorption of orally administered drugs. Assessing transport in both directions (apical to basolateral (A-B) and basolateral to apical (B-A)) across the cell monolayer enables an efflux ratio to be determined which provides an indicator as to whether a compound undergoes active efflux. […] As will be appreciated, active efflux substantially compromises oral bioavailability.

[3] = metabolic stability assay in rat liver microsomes; assay type: in vitro ADME; conditions: for microsomal CLint at 1 μM: pH 7.4, male Wistar rat liver microsomes, 0.5 mg protein/mL, 1 μM test compound, NADPH
Protocol: Hepatic clearance is the most important drug elimination mechanism in the body and many marketed compounds are cleared by hepatic cytochrome P450-mediated metabolism. The excretion or elimination property of the test compounds was determined with a metabolic stability assay according to Obach R S (Drug Metab. Dispos. 1999, 27(11), 1350-1359).
Assays were performed in 96-deepwell-plates using liver microsomes pooled from male Wistar rats (Corning). Rat liver microsomal incubations were conducted in duplicate and incubation mixtures consisted of liver microsomes (0.5 mg microsomal protein/mL), test compound (1 μM), MgCl2 (2 mM), and NADPH (1 mM) in a total volume of 0.7 ml sodium phosphate buffer (100 mM, pH 7.4). Reactions were commenced with the addition of NADPH and shaken on a horizontal shaker with a fitted heating block at 37° C. At t=0 min and the time points: 10 min, 30 min and 60 min; aliquots (70 μL) were removed from the incubations and added to 140 μl termination mixtures. Termination mixtures consisted of acetonitrile supplemented with diazepam, diclofenac and griseofulvin as internal analytical standards. The quenched samples were processed by mixing and centrifugation (2,200×g, 5 minutes). The particle free supernatant was diluted 1+1 with deionised water and subsequently subjected to LC-MS for quantitative bioanalysis in terms of test compound depletion (pump flow rate: 600 μL/min; Kinetex Phenyl-Hexyl analytical column 2.6 μm, 50×2.1 mm (Phenomenex, Germany)). Incubations containing verapamil at a concentration of 1 μM were used as high clearance positive control (PC; n=2), and incubations without NADPH (70 μl phosphate buffer (supplemented with 2 mM MgCl2) instead of 70 μL NADPH solution), in order to verify that any apparent loss of test item in the assay incubation was due to metabolism, were used as negative control (NC; n=2).
Clint data allow to predict the hepatic clearance in vivo, or, in other words, can be used as an indicator for the half life of a compound in vivo and its oral bioavailability. Highly cleared compounds are generally considered to be unfavourable as they are rapidly cleared in vivo resulting in a short duration of action. Said another way, a lower in vitro intrinsic clearance is usually indicative of a longer half life in vivo and of a better oral bioavailability.

[4] = tested on: differentiated Caco-2 cell monolayer; test: Caco-2 cell permeability assay (efflux ratio); assay type: in vitro ADME, human; conditions: Papp B to A/Papp A to AB
Protocol: as §1, §2

Structure (SMILES) | IC50 [1] | efflux ratio [2] | microsomal CLint at 1 μM [3] | other results
Cc1cc(-n2cc(F)cn2)c2cccc(OCc3c(Cl)cc(F)cc3[C@H](C)NC(=O)[C@@H](C)O)c2n1 [Compound 1, (R)—N—((S)-1-(3-chloro-5-fluoro-2-((4-(4-fluoro-1H-pyrazol-1-yl)-2-methylquinolin-8-yloxy)methyl)phenyl)ethyl)-2-hydroxypropanamide] | 51 to 250 nM | 0.7 | 56 µL/min/mg | –
Cc1cc(-c2ncnn2C)c2cccc(OCc3c(Cl)cc(F)cc3[C@H](C)NC(=O)COC(F)F)c2n1 [Compound 6, (S)—N-(1-(3-chloro-5-fluoro-2-((2-methyl-4-(1-methyl-1H-1,2,4-triazol-5-yl)quinolin-8-yloxy)methyl)phenyl)ethyl)-2-(difluoromethoxy)acetamide] | ≤ 50 nM | 1 | – | fold lower Clint as compared to Comparative Compound No. 171 ([3]; versus Comparative Compound No. 171): 17.8 fold; fold lower Clint as compared to Comparative Compound No. 174 ([3]; versus Comparative Compound No. 174): 4.8 fold
[2H][C@@](C)(NC(=O)COC(F)F)c1cc(F)cc(Cl)c1COc1cccc2c(-c3ncnn3C)cc(C)nc12 [Compound 11, (S)—N-(1-deutero-1-(3-chloro-5-fluoro-2-((2-methyl-4-(1-methyl-1H-1,2,4-triazol-5-yl)quinolin-8-yloxy)methyl)phenyl)ethyl)-2-(difluoromethoxy)acetamide] | ≤ 50 nM | 1.3 | 20 µL/min/mg | –
Cc1cc(-n2cc(F)cn2)c2cccc(OCc3c(Cl)cc(F)cc3[C@H](C)NC(=O)[C@H](C)O)c2n1 [Compound 13] | 251 to 1000 nM | 0.6 | 13 µL/min/mg | fold improvement of relative IC50 as compared to Comparative Compound No. 169 ([1]; versus Comparative Compound No. 169): 7.5 fold; fold improvement of relative IC50 as compared to Comparative Compound No. 172 ([1]; versus Comparative Compound No. 172): 3.8 fold
[2H][C@@](C)(NC(=O)c1cocn1)c1cc(F)cc(Cl)c1COc1cccc2c(-n3ncnc3C)cc(C)nc12 [Compound 198] | ≤ 50 nM | – | – | –
[2H][C@@](C)(NC(=O)c1cocn1)c1cc(F)cc(Cl)c1COc1cccc2c(-c3ncnn3C)cc(C)nc12 [Compound 199] | ≤ 50 nM | – | – | –
[2H]C([2H])([2H])[C@H](NC(=O)c1cocn1)c1cc(F)cc(Cl)c1COc1cccc2c(-c3ncnn3C)cc(C)nc12 [Compound 200] | ≤ 50 nM | – | – | –
[2H]C([2H])([2H])[C@]([2H])(NC(=O)c1cocn1)c1cc(F)cc(Cl)c1COc1cccc2c(-c3ncnn3C)cc(C)nc12 [Compound 201] | ≤ 50 nM | – | – | –
[2H]C([2H])([2H])[C@H](NC(=O)COC(F)F)c1cc(F)cc(Cl)c1COc1cccc2c(-c3ncnn3C)cc(C)nc12 [Compound 202] | ≤ 50 nM | – | – | –
Cc1cc(-c2ncnn2C)c2cccc(OCc3c(Cl)cc(F)cc3[C@H](C)NC(=O)[C@H](C)F)c2n1 [Compound 203] | ≤ 50 nM | – | – | –
Cc1cc(-c2ncnn2C)c2cccc(OCc3c(Cl)cc(F)cc3[C@H](C)NC(=O)[C@@H](C)F)c2n1 [Compound 204] | ≤ 50 nM | – | – | –
Cc1cc(-c2ncc(C#N)n2C)c2cccc(OCc3c(Cl)cc(F)cc3[C@H](C)NC(=O)COC(F)F)c2n1 [Compound 205] | ≤ 50 nM | – | – | –
Cc1cc(-c2ncc(C#N)n2C)c2cccc(OCc3c(Cl)cc(F)cc3[C@H](C)NC(=O)CC(F)(F)F)c2n1 [Compound 206] | ≤ 50 nM | – | – | –
Cc1cc(-c2ncc(C#N)n2C)c2cccc(OCc3c(Cl)cc(F)cc3[C@H](C)NC(=O)C(C)F)c2n1 (some centres unmarked) [Compound 207] | ≤ 50 nM | – | – | –
[2H][C@@](C)(NC(=O)CC(F)(F)F)c1cc(F)cc(Cl)c1COc1cccc2c(-n3ncnc3C)cc(C)nc12 [Compound 208] | ≤ 50 nM | – | – | –
[2H][C@@](C)(NC(=O)CC(F)F)c1cc(F)cc(Cl)c1COc1cccc2c(-n3ncnc3C)cc(C)nc12 [Compound 209] | ≤ 50 nM | – | – | –
[2H][C@@](C)(NC(=O)CC(F)F)c1cc(F)cc(Cl)c1COc1cccc2c(-c3ncnn3C)cc(C)nc12 [Compound 210] | ≤ 50 nM | – | – | –
[2H][C@@](C)(NC(=O)[C@@H](C)F)c1cc(F)cc(Cl)c1COc1cccc2c(-c3ncnn3C)cc(C)nc12 [Compound 211] | ≤ 50 nM | – | – | –
[2H][C@@](C)(NC(=O)[C@H](C)F)c1cc(F)cc(Cl)c1COc1cccc2c(-n3ncnc3C)cc(C)nc12 [Compound 212] | ≤ 50 nM | – | – | –
[2H][C@@](C)(NC(=O)[C@H](C)F)c1cc(F)cc(Cl)c1COc1cccc2c(-c3ncnn3C)cc(C)nc12 [Compound 213] | ≤ 50 nM | – | – | –
Cc1cc(-n2cc(F)cn2)c2cccc(OCc3c(Cl)cncc3C(C)NC(=O)[C@H](C)O)c2n1 (some centres unmarked) [compound 169] | – | > 2 | 427 µL/min/mg | Caco-2 BA/AB (efflux ratio) [4]: 3.4
Cc1cc(-n2cc(F)cn2)c2cccc(OCc3c(Cl)cncc3C(C)NC(=O)[C@@H](C)O)c2n1 (some centres unmarked) [compound 170] | – | > 2 | 329 µL/min/mg | Caco-2 BA/AB (efflux ratio) [4]: 2.9
Cc1cc(-c2ncnn2C)c2cccc(OCc3c(Cl)cncc3C(C)NC(=O)COC(F)F)c2n1 (centres unmarked) [compound 171] | – | – | – | Caco-2 BA/AB (efflux ratio) [4]: 7.7
Cc1cc(-n2cc(F)cn2)c2cccc(OCc3c(Cl)cccc3C(C)NC(=O)[C@H](C)O)c2n1 (some centres unmarked) [compound 172, reference compound] | – | 1.6 | 56 µL/min/mg | –
Cc1cc(-n2cc(F)cn2)c2cccc(OCc3c(Cl)cccc3C(C)NC(=O)[C@@H](C)O)c2n1 (some centres unmarked) [compound 173, reference compound] | – | 1.1 | 132 µL/min/mg | –
Cc1cc(-c2ncnn2C)c2cccc(OCc3c(Cl)cccc3C(C)NC(=O)COC(F)F)c2n1 (centres unmarked) [compound 174, reference compound] | – | 1.3 | 135 µL/min/mg | –
